From patent publication US10933126B2, “Clostridium difficile immunogenic compositions and methods of use” (The Board of Regents of the University of Oklahoma, priority 2018, dated 2021)

Experiments:
[1] = tested on: PSII; parameters: species or system B6 mice; conditions: mouse, in vivo
[2] = tested on: C. difficile VPI 10463 spores; experiment: C. difficile spore challenge assay in immunized B6 mice (body weight); format: in vivo; conditions: 10^4 spores
Experimental: Non-immunized age- and sex-matched naïve B6 mice were Cefoperazone-treated and then treated with vehicle only (a) or were infected with 10^4 live C. difficile spores (b). Some mice were administered PSII alone followed by a PSII booster one week later (c), or administered vehicle only followed by the PSII booster one week later (d), or administered α-GC alone followed by the PSII booster (e), or administered a PSII and α-GC combination followed by the PSII booster (f), or administered α-GC alone followed by vehicle (g). Animals were then treated with the antibiotic Cefoperazone prior to being infected with 10^4 live C. difficile spores. Graphs show the percent of original weight, which was obtained daily and for the duration indicated. Five mice were used for each group except for the naïve-infected and the PSII/α-GC groups (n=10). […] In the uninfected control group (a), zero counts were detected (limit of detection in assay=10^2).
Immunizations: Mice were immunized s.c. in both flanks with a total of 15 μg or 50 μg PSII or PSII plus 4 μg α-GC, in a 200 μl total volume of sterile low-endotoxin PBS. The amount of α-GC administered has been determined in previous studies to exert a strong CD1d- and NKT-dependent effect on Ab responses. […]
Animal weight was then measured daily. […]

Question: For CCCCCCCCCCCCCCCCCCCCCCCCCC(=O)N[C@@H](CO[C@H]1O[C@H](CO)[C@H](O)[C@H](O)[C@H]1O)[C@H](O)[C@H](O)CCCCCCCCCCCCCC [α-GC, (2S,3S,4R)-1-O-(α-D-Galactosyl)-N-hexacosanoyl-2-amino-1,3,4-octadecanetriol], which Anti-PSII titers [1] is on record?
Answer: The Anti-PSII titers was “could not be detected”.

Question: What about the “Body weight after C. difficile challenge” value ([2]; α-GC alone, w/o a PSII booster (FIG. 6g)) of the same compound?
Answer: Its value is “did not protect against weight loss”.

Question: And the “Body weight after C. difficile challenge” value ([2]; α-GC followed one week later with PSII (FIG. 6e))?
Answer: Its value is “no weight loss was observed”.
